In patent US4853385A, “7-N,8-N-Ethylenemitomycin 8-imines” (Kyowa Hakko Kogyo Co., Ltd., priority 1987, dated 1989):

Assays:
[1] = test system: Sarcoma 180 solid tumor; assay: Antitumor activity against sarcoma 180 solid tumor (tumor volume T/C, ED50); assay type: in vivo; settings: ddY mice; for CI (chemotherapy index, LD50/ED50): sarcoma 180 solid tumor, i.p.; for ED50: Mus musculus, Sarcoma-180, ip, 168 h, i.p. 24 h after s.c. implantation, tumor volume at 7 days, dose for T/C 0.5
Experimental: (§1) Some compounds were chosen from Compound I, and antitumor activity (ED50) against Sarcoma 180 solid tumor and acute toxicity (LD50) were measured.
(1) Effect on sarcoma 180 solid tumor
Sarcoma 180 cells of 5×10^6 were intraperitoneally implanted into ddY mice. Seven days after, the cells were collected from the ascites. The cells were washed once with a sterile physiological saline, and the cells were suspended in sterile physiological saline to prepare a cell suspension containing 5×10^7 cells per ml. 0.1 ml of the suspension was subcutaneously implanted into the right axilla of male ddY mice weighing 20±2 g. The test compound was dissolved in physiological saline with or without addition of Tween 80 and was administered intraperitoneally into each mouse of a group consisting of 5 mice at a dose of 0.1-0.2 ml, 24 hours after the implantation of the tumor cells.
The anti-tumor activity was determined in the following manner. 7 days after the implantation, the major axis (a) and the minor axis (b) of the tumor were measured to calculate a value of "a×b^2 /2" which corresponds to the volume of the tumor. The anti-tumor activity was expressed by the ratio (T/C) of the volume (T) of the tumors of the group of animals administered with the test compound to the corresponding volume (C) of tumors of the untreated animals.
(2) Determination of ED50 :
On graph paper, T/C was indicated by an arithmetic scale on the longitudinal axis and the administered amount of the test compound was indicated by a logarithmic scale on the lateral axis. The relationship between the dose and T/C was plotted by a straight line determined by the method of least squares, from which a dose corresponding to T/C of 0.5 was obtained.
CI in the table indicates chemotherapy index and given by:
As is clear from this definition, the CI value reflects selective toxicity against tumor. As the CI value is larger, the effect as an antitumor agent is more excellent, and from a clinical viewpoint, allowance of chemicals in dosage becomes broader. Therefore, the CI value is one of the most important indices in evaluation of antitumor agents.

[2] = Acute toxicity (LD50, Beherns Kaerber's method); settings: mouse, in vivo, ip; single i.p. administration, 14 days observation, ddY mice
Experimental: as §1
Each animal of the test group consisting of 5 ddY mice was administered intraperitoneally once with a test compound. […] The LD50 was determined by Beherns Kaerber's method.

[3] = test system: lymphocytic leukemia P-388; assay: Antitumor activity against lymphocytic leukemia P-388; assay type: in vivo, CDF1 mice (P-388 from DBA/2 mice); settings: single i.p., 33-day observation
Experimental: (§2) Some compounds were chosen from Compound I and antitumor activity against lymphocytic leukemia P-388 and mitomycin C-resistant P-388 was measured.
The experiment was carried out by the following method.
(§3) From the peritoneal cavity of P-388 ascitic tumor-bearing mice (DBA/2) 7 days after the implantation, an ascitic fluid was collected. The cell number of P-388 in the ascitic fluid was counted, and the cells were suspended in sterile physiological saline to prepare a tumor cell suspension containing 5×10^6 cells/ml. 0.2 ml (containing 1×10^6 cells) of the suspension was implanted intraperitoneally into CDF1 mice weighing 20 to 25 g. The test compound was intraperitoneally administered to each mouse of one test group consisting of 6 CDF1 mice at a single dosage in 24 hours after the implantation of the tumor. 33-Day observation gave the survived life span for each mouse. Evaluation of the effect of the test compound was made by a ratio of a mean survival days after the implantation of the mice treated with the test compound to a mean survival days of the mice untreated with the test compound in the control group (Increased Life Span, ILS%). Then, ILS*, which is a ratio of ILS % of the test compound to ILS % of mitomycin C used as a reference compound under the same conditions, was calculated and shown in Table 4.

[4] = test system: mitomycin C-resistant P-388; assay: Antitumor activity against mitomycin C-resistant P-388; assay type: in vivo, CDF1 mice (P-388 from DBA/2 mice); settings: single i.p.
Experimental: as §2, §3
Further, the experiment was carried out in the same manner as above, using lymphocytic leukemia P-388 resistant to mitomycin C. Evaluation of the effect of the test compound is shown by a ratio (ILS %) to a mean survival data of the control group (untreated mice).

| Compound | CI (chemotherapy index, LD50/ED50) [1] | ED50 [1] | LD50 at 336 h [2] | ILS* (ratio of ILS % of test compound to ILS % of mitomycin C) ([3]; P-388, dose 100 mg/kg) | ILS(%) (ratio to mean survival of the untreated control group) ([4]; mitomycin C-resistant P-388, dose 100 mg/kg) | ILS* (ratio of ILS % of test compound to ILS % of mitomycin C) ([3]; P-388, dose 1.5 mg/kg) | ILS(%) (ratio to mean survival of the untreated control group) ([4]; mitomycin C-resistant P-388, dose 1.5 mg/kg) | ILS* (ratio of ILS % of test compound to ILS % of mitomycin C) ([3]; P-388, dose 1.25 mg/kg) | ILS(%) (ratio to mean survival of the untreated control group) ([4]; mitomycin C-resistant P-388, dose 1.25 mg/kg) |
| --- | --- | --- | --- | --- | --- | --- | --- | --- | --- |
| CO[C@@]12[C@H](COC(N)=O)C3=C(C(=O)C(C)=C4NCCN=C43)N1C[C@@H]1N[C@@H]12 [Compound A, 7-N,8-N-ethylenemitomycin C 8-imine, reference compound] | 1.10 | 5.9 mg/kg | 6.5 mg/kg | 0.43 | 107% | – | – | – | – |
| CO[C@]12[C@@H]3[C@H](CN1C1=C(C4=NCCNC4=C(C)C1=O)[C@@H]2COC(N)=O)N3C (stereo partly drawn) [Compound 3, 7-N,8-N--Ethylenemitomycin E 8-imine] | 1.51 | 3.7 mg/kg | 5.6 mg/kg | – | – | – | – | – | – |
| CC1=C2NCCN=C2C2=C(C1=O)N1C[C@H]3[C@H](N3C)[C@]1(O)[C@H]2COC(N)=O (stereo partly drawn) [Compound 2, 7-N,8-N--Ethylenemitomycin D 8-imine] | 2.12 | 10.6 mg/kg | 22.5 mg/kg | – | – | – | – | – | – |
| C=C1C2=C(C(=O)C(C)=C3NCCN=C32)N2C[C@H]3[C@H](N3C)[C@]12O (stereo partly drawn) [Compound 4, 9a-O--Demethyl-7-N,8-N--ethylenemitomycin G 8-imine] | 2.11 | 47.5 mg/kg | 100 mg/kg | – | – | – | – | – | – |
| CO[C@@]12[C@H](COC(N)=O)C3=C(C(=O)C(C)=C4NCCN=C43)N1C[C@H]1[C@@H]2N1C (stereo partly drawn) [Compound 1, 7-N,8-N-ethyleneporfiromycin 8-imine] | 1.73 | 1.5 mg/kg | 2.6 mg/kg | – | – | 0.60 | 135% | – | – |
| CO[C@@]12[C@H](COC(N)=O)C3=C(C(=O)C(C)=C4NC5CCCCC5N=C43)N1C[C@H]1[C@@H]2N1C (stereo partly drawn) [Compound 5, 7-N,8-N--(1,2-Cyclohexylene) porfiromycin 8-imine] | – | – | – | – | – | – | – | 0.56 | 144% |
